One may read the MIC as the lowest concentration found to suppress growth.

The values that follow come from patent US20250312258A1, “2,3-PYRROLIDINEDIONE CONJUGATES AND METHODS OF USING THEREOF” (North Carolina State University, priority 2022, published 2025).

For assay [1], the system named is S. aureus 29213. The assay is described as follows: Broth microdilution MIC, S. aureus 29213. The assay is classed as cell-based, Staphylococcus aureus. As to conditions: Staphylococcus aureus, 29213; read-out: MIC (S. aureus 29213).
Assay [2] relates to MRSA 33591. As to the kind of experiment: Broth microdilution MIC, MRSA 33591. It is filed as cell-based. As to conditions: Staphylococcus aureus, read-out: MIC (MRSA 33591). A general note: Broth dilution looks for growth in wells or tubes with falling amounts of substance.
For assay [3], the system named is S. aureus 25923. As to the kind of experiment: Broth microdilution MIC, S. aureus 25923. As to conditions: Staphylococcus aureus, 25923; read-out: MIC (S. aureus 25923). The assay is classed as cell-based, Staphylococcus aureus.
For assay [4], the system named is VRSA. The assay is described as follows: MIC against VRSA (Table 2). The assay is classed as cell-based. As to conditions: Staphylococcus aureus, read-out: MIC (VRSA).
Assay [5] concerns S. aureus VRS-2. As to the kind of experiment: VRSA thigh infection model in neutropenic mice. It is filed as in vivo, mouse. As to conditions: 50 mg/kg PO BID q12h, 26 h post-infection, p<0.05. The method, then:
(§1) FIG. 8 is a plot comparing the efficacy of linezolid, Compound 4 (AV-0273), and Compound 8 (AV-0267) in the S. aureus VRS-2 thigh infection model, CFU/g thigh. Test animals were rendered neutropenic with cyclophosphamide administration, 150 mg/kg on Day −4 then 100 mg/kg on Day −1 prior to infection on Day 0. On Day 0, animals were intramuscularly inoculated with 8.4×10^4 CFU/mouse (0.1 mL/animal) of the S. aureus VRS-2 strain. The vehicle and the test articles, Compound 4 (AV-0273) and Compound 8 (AV-0267), both at 100 mg/kg, were each intraperitoneally (IP) administered twice with a 12 h interval (BID q12h) at 2 and 14 h after infection. The reference standard, linezolid at 50 mg/kg, was orally (PO) administered BID q12 h starting at 2 h post-infection. Animals were sacrificed at 2 or 26 h post-infection, and the thigh tissues were harvested and weighed from each of the test animals. The bacterial counts (CFU/g thigh) of thigh tissue homogenates were measured.
as §1, with “FIG. 9” for “FIG. 8”, “of linezolid” for “of linezolid,”, “CFU/g thigh, change in bacterial counts relative to baseline count at 26h post-infection. Data represent the change in bacterial counts in thigh tissue following test article treatment relative to the initial 2 h CFU/g thigh or CFU/thigh at the time of dosing (baseline counts).” for “CFU/g thigh.”, “(BID q12 h)” for “(BID q12h)”, “(CFU/g thigh and CFU/thigh)” for “(CFU/g thigh)”, “were compared.” for “were measured.”
Example vancomycin-2,3-pyrrolidinediones conjugates were evaluated using an in vivo tissue infection model with vancomycin resistant MRSA:
Animal model: Murine thigh infection
Bacteria: VRSA (VRS-2). Gram Positive, Staphylococcus aureus (VRSA, VRS-2), Mouse Infected Thigh Model. VRS-2 is VanA producing SCC Mec II st5 train.
Vancomycin conjugates dose: 100 mg/Kg intraperitoneally (IP).
Application: This model assesses the antimicrobial efficacy of test articles in a tissue infection model with vancomycin resistant MRSA. Microbial counts are measured. […]

In brackets after ≈: the same amount, converted by molar mass.

On to `CCC1C(c2ccc(C(F)(F)F)cc2)=C(O)C(=O)N1CCCCNC` (stereo not shown) [Compound 2], for which the MIC is 1 µg/mL (≈ 2.81 µM) in assay [1], 2 µg/mL (≈ 5.61 µM) in assay [2] and 2 µg/mL (≈ 5.61 µM) in assay [3].

Regarding `CCC1C(c2ccc(C(F)(F)F)cc2)=C(O)C(=O)N1CCCCCCNC` (stereo not shown) [Compound 3], the MIC in assay [1], in assay [2] and in assay [3] was 2 µg/mL (≈ 5.2 µM) throughout.

For the compound `CCC1C(c2ccc(C(F)(F)F)cc2)=C(O)C(=O)N1c1ccc(NC)cc1` (stereo not shown) [Compound 5], the minimum inhibitory concentration (MIC) in assay [1] was 1 µg/mL (≈ 2.66 µM); in assay [2], 1 µg/mL (≈ 2.66 µM); in assay [3], 2 µg/mL (≈ 5.31 µM).

For the compound `CCC1C(c2ccc(C(F)(F)F)cc2)=C(O)C(=O)N1CCOCCNC` (stereo not shown) [Compound 6], the minimum inhibitory concentration (MIC) in assay [1] and in assay [3] was 1 µg/mL (≈ 2.69 µM) each time.

For the compound `CCC1C(c2ccc(C(F)(F)F)cc2)=C(O)C(=O)N1CCOCCOCCOCCNC` (stereo not shown) [Compound 7], the MIC in assay [1] amounted to 1 µg/mL (≈ 2.17 µM); in assay [2], 1 µg/mL (≈ 2.17 µM); in assay [3], 2 µg/mL (≈ 4.34 µM); in assay [4] it was 4 µg/mL (≈ 8.69 µM).

With `CCC1C(c2ccc(C(F)(F)F)cc2)=C(O)C(=O)N1CCCNCCCCNCCCNC` (stereo not shown) [Compound 9b], the MIC was 1 µg/mL (≈ 2.13 µM) in assay [1], 1 µg/mL (≈ 2.13 µM) in assay [2] and 0.5 to 1 µg/mL (≈ 1.06 to 2.13 µM) in assay [3].

For `CCC1C(c2ccc(C(F)(F)F)cc2)=C(O)C(=O)N1CCN(CCNC)CCN1C(=O)C(O)=C(c2ccc(C(F)(F)F)cc2)C1CC` (stereo not shown) [Compound 10], the minimum inhibitory concentration (MIC) in assay [1] was determined as 8 µg/mL (≈ 12 µM); in assay [2], 8 µg/mL (≈ 12 µM); in assay [3], 16 µg/mL (≈ 23.9 µM).

Take `CC(=O)NC[C@H]1CN(c2ccc(N3CCOCC3)c(F)c2)C(=O)O1` [Linezolid, reference compound]: the “reduction in bacterial counts compared to the vehicle control group” value in assay [5] is given as 100%.
